Data reported in patent publication US20260193644A1, “Compositions and Methods For Modulation of Tumor Suppressors and Oncogenes” (FLAGSHIP PIONEERING INNOVATIONS VII, LLC, priority 2022, published 2026).
Several values for one entry are separate records, joined by “and”; a condition that tells them apart may be missing. Equal entries are not always repeated.

Columns and labels:
Type in all cases: cell-based
HCT116 cells = experiment: WST-1 proliferation assay on HCT116 cells treated with peptide
Protocol: Proliferation: HCT-116 cells were plated in 96 well plate (5,000 cells/well) grown in standard media supplemented with 10% FBS. After 48 hours incubation at 37° C. (5% CO2), the cells are subjected to the WST-1 ([…]) assay. The WST-1 assay (Sigma) is a measure of the metabolic activity (i.e. proliferative rate) of cells. […]

U2OS cells [1] = experiment: WST-1 proliferation assay on U2OS cells treated with peptide
HCT-116 cells = experiment: Caspase-Glo 3/7 apoptosis assay, peptide-treated HCT-116 cells; conditions: listed = significant
Protocol: (§1) Cell Culture: Tumor cell lines HCT-116 (Colon Cancer Cell line, ATCC) and U2OS (Osteoscarcoma Cell line, ATCC) cells were grown adherently in ATCC-formulated McCoy's 5a medium supplemented with 10% FBS and 1× penicillin-streptomycin at 37° C. (5% CO2). Jurkat cells (acute T-cell leukemia cell line, ATCC) were grown as suspension cultures in ATCC-formulated RPMI-1640 supplemented with 10% FBS and 1× penicillin-streptomycin at 37° C. (5% CO2). HEP-G2 cells (Liver Cancer Cell line, ATCC) cells were grown adherently in ATCC-formulated Eagle's Minimum Essential Medium (EMEM) supplemented with 10% FBS and 1× penicillin-streptomycin at 37° C. (5% CO2).
(§2) Peptide Treatment: Target protein SEQ ID NO: 37997 was synthesized through Fluorenylmethyloxycarbonyl (Fmoc) protection group chemistry using Solid Phase Peptide Synthesis (SPPS). 5 μM of target peptide and control peptides were added to a 96 well plate containing 10,000 cells (100 μL/well). A white-walled 96-well plate adequate for cell culture and compatible with the luminometer was used. (Corning)
(§3) Apoptosis Assay: Following 24 hrs of peptide treatment, an equal volume reconstituted Caspase-Glo® 3/7 assay reagent mixture (Promega) was added to the cells. The contents of wells were gently mixed using a plate shaker at 300-500 rpm for 30 seconds. The plate was then Incubate at room temperature for 3 hours. The treated plates were then read for luminescence on Promega™ GloMax® Plate Reader. A blank reaction that contained caspase-Glo® 3/7 reagent, vehicle and cell culture medium without cells was used to measure background luminescence. The blank reaction values were subtracted from experimental values. A negative control that contained caspase-Glo® 3/7 reagent and vehicle-treated cells in medium was included to determine the basal caspase activity of the cell culture system. Significant difference in apoptosis was determined using ANOVA analysis by comparing cells treated with SEQ ID NO: 37997 peptide to cells treated with an irrelevant control peptide, or vehicle control treated cells.

Jurkat cells = experiment: Caspase-Glo 3/7 apoptosis assay, peptide-treated Jurkat cells; conditions: listed = significant
Protocol: as §1, §2, §3

U2OS cells [2] = experiment: Caspase-Glo 3/7 apoptosis assay, peptide-treated U2OS cells; conditions: listed = significant
Protocol: as §1, §2, §3

[3] = Low sera (continued), 0.5 uM, head 3 SD
[4] = Low sera (continued), 0.1 uM, head 2 SD
[5] = Low sera (continued), 0.1 uM, head 4 SD

Molecule | proliferation hit score, High sera (HCT116 cells; 0.5 uM, head 3 SD) | proliferation hit score, High sera (HCT116 cells; 5 uM, head 3 sd) | proliferation hit score, Low sera (HCT116 cells; [3]) | proliferation hit score, Low sera (HCT116 cells; Low sera, 5 uM, head 2 SD) | proliferation hit score, High sera (U2OS cells [1]; 5 uM, head 5 SD) | proliferation hit score, Low sera (U2OS cells [1]; [3]) | proliferation hit score, Low sera (U2OS cells [1]; Low sera, 5 uM, head 2 SD) | proliferation hit score, High sera (HCT116 cells; 0.1 uM, head 3 SD) | proliferation hit score, High sera (HCT116 cells; 1 uM, head 2 SD) | proliferation hit score, High sera (HCT116 cells; 10 uM, head 4 SD) | proliferation hit score, Low sera (HCT116 cells; Low sera, 1 uM, head 3 SD) | proliferation hit score, Low sera (HCT116 cells; Low sera, 10 uM, head 3 SD) | proliferation hit score, High sera (U2OS cells [1]; 1 uM, head 5 SD) | proliferation hit score, High sera (U2OS cells [1]; 10 uM, head 8 SD) | proliferation hit score, Low sera (U2OS cells [1]; [4]) | proliferation hit score, Low sera (U2OS cells [1]; [5]) | proliferation hit score, Low sera (U2OS cells [1]; Low sera, 1 uM, head 5 SD) | proliferation hit score, Low sera (U2OS cells [1]; Low sera, 10 uM, head 6 SD) | other results
SEQ ID NO: 28759: peptide hit of Table E; sequence only in Sequence Listing (MKKSCRWVFFLITKSLFKETVA; listed as Homo sapiens) | −1.466 SD | −1.78 SD | 0.5212 SD | −3.329 SD | 1.2 SD | −1.934 SD | −4.99 SD | – | – | – | – | – | – | – | – | – | – | – | –
SEQ ID NO: 29230: peptide hit of Table E; sequence only in Sequence Listing (REQVPGMGGKSWLFFYSLVFCALLPLPRREDPFKLF; listed as Homo sapiens) | – | – | – | – | – | – | – | 2.159 SD | −0.4364 SD | 0.2713 SD | −1.09 SD | −2.162 SD | −5.771 SD | −5.758 SD | −2.296 SD | 2.01 SD | 3.875 SD | 2.682 SD | –
SEQ ID NO: 29485: ORF peptide; sequence only in Sequence Listing (MRSPLSASALLLWSSSVARAFSSPSLLMAVPSPTCSRY; listed as Homo sapiens) | – | – | – | – | – | – | – | – | – | – | – | – | – | – | – | 2.026 SD and 1.922 SD | 3.795 SD and 2.322 SD | 5.612 SD and 4.323 SD | peptides inducing significant apoptosis (z-score vs vehicle control) (HCT-116 cells): SEQ ID NO: 29485; peptides inducing significant apoptosis vs vehicle control (Jurkat cells): SEQ ID NO: 29485
SEQ ID NO: 33599: ORF peptide; sequence only in Sequence Listing (MCLGLLFCFMPLSLVVSSEEARFKVAADLCGFATGNSW; listed as Homo sapiens) | – | – | – | – | – | – | – | 0.5427 SD | −0.6105 SD | −4.843 SD | −0.9914 SD | −5.29 SD | −2.566 SD | −14.68 SD | −0.8886 SD | 2.01 SD | 4.323 SD | −8.391 SD | –
SEQ ID NO: 33681: peptide hit of Table E; sequence only in Sequence Listing (IMAIFFFFCIIVSSLPTAELGTENACSTCLLNE; listed as Homo sapiens) | – | – | – | – | – | – | – | 0.9926 SD | −3.672 SD | −8.606 SD | 0.1255 SD | −2.584 SD | −0.8283 SD | −10.57 SD | −1.01 SD | 4.988 SD | 9.376 SD | −6.861 SD | –
SEQ ID NO: 34047: peptide hit of Table E; sequence only in Sequence Listing (MHINYFFFLKLFLSLQNLILALDLRRESLTRDETQ; listed as Homo sapiens) | 0.5338 SD | 0.008734 SD | 1.561 SD | 0.3241 SD | −6.825 SD | 2.331 SD | −5.958 SD | – | – | – | – | – | – | – | – | – | – | – | –
SEQ ID NO: 34296: ORF peptide; sequence only in Sequence Listing (MFFCRNYGSFWFYVLSKMLSFFICLLIFVHLLLLSFLISDWPPPTGSAEHKYSG; listed as Homo sapiens) | – | – | – | – | – | – | – | – | – | – | – | – | – | – | – | – | – | – | peptides inducing significant apoptosis vs vehicle control (Jurkat cells): SEQ ID NO: 34296
SEQ ID NO: 36828: ORF peptide; sequence only in Sequence Listing (MAIFFFFCIIVSSLPTAELGTENACSTCLLNE; listed as Homo sapiens) | – | – | – | – | – | – | – | – | – | – | – | – | – | – | – | – | – | – | z-score compared to vehicle control (peptides inducing significant apoptosis) (U2OS cells [2]): SEQ ID NO: 36828; peptides inducing significant apoptosis vs vehicle control (Jurkat cells): SEQ ID NO: 36828
SEQ ID NO: 38017: peptide hit of Table E; sequence only in Sequence Listing (GVFVVARDRRRRELRTGAFSLLLGVVALLPLCGKRIQALPRACGCGGPEVLVVPR; listed as Homo sapiens) | −0.9491 SD | −1.457 SD | −0.1996 SD | −1.525 SD | −3.812 SD | 2.343 SD | −2.719 SD | – | – | – | – | – | – | – | – | – | – | – | –
SEQ ID NO: 38073: peptide hit of Table E; sequence only in Sequence Listing (MTVSLFLLLATSQSQDGCCDSGSCPNSRQQEGHGAAPASSCLPIP; listed as Homo sapiens) | 0.3814 SD | −0.2232 SD | 0.586 SD | 0.1141 SD | −4.132 SD | 3.652 SD | −1.571 SD | – | – | – | – | – | – | – | – | – | – | – | –
SEQ ID NO: 38076: ORF peptide; sequence only in Sequence Listing (MHLLLLPVIFLPWVLPQHKHTSATPGFSSEKQFMSETENQTANVKFY; listed as Homo sapiens) | −0.8521 SD | −1.476 SD | 0.1011 SD | −0.293 SD | −0.8798 SD | 3.033 SD | 0.2974 SD | – | – | – | – | – | – | – | – | – | – | – | –
SEQ ID NO: 38081: peptide hit of Table E; sequence only in Sequence Listing (MRRAWRPRLLGAALVAH; listed as Homo sapiens) | – | – | – | – | – | – | – | −0.4952 SD | −0.4884 SD | −0.5065 SD | −3.589 SD | −2.477 SD | −15.19 SD | −3.67 SD | −3.47 SD | 2.082 SD | 1.521 SD | −2.322 SD | –
SEQ ID NO: 34508: ORF peptide; sequence only in Sequence Listing (peptide, listed as Homo sapiens) LPLYPLHRKWAGSGLLVFAAPAARAQQGPGEMATVPAPGRTGERALPPPHVSARASFLGSTLWM | 0.2038 SD | −0.02329 SD | 0.9567 SD | 1.932 SD | −0.8798 SD | 5.043 SD | 1.344 SD | −5.097 SD | −2.867 SD | −5.856 SD | −1.6 SD | −3.628 SD | −1.711 SD | −12.11 SD | 1.335 SD | 3.475 SD | 4.275 SD | −11.74 SD | –
SEQ ID NO: 26298: peptide hit of Table E; sequence only in Sequence Listing (peptide, listed as Homo sapiens) VQSGKCESSVLGYSATCLPDMGRWRVSSVESWPFASTGGKLAIATAGTGTQAAPRPFLIRPPDSWALALALM | – | – | – | – | – | 2.391 SD and 2.95 SD | – | – | – | – | – | – | – | – | – | – | – | – | –
